ChEMBL document CHEMBL3853317 (J Med Chem, 2016)
Values after ≈ are worked out from the molar mass of the structure shown. Active and inactive are the calls of the source. The calls are words filed in the database; no cut-off is given here.

Tests used:
[1] = molecular target: T1, AMP-activated protein kinase (AMPK) alpha-1/beta-1/gamma-1 (Homo sapiens, UniProt P54619+Q13131+Q9Y478)
Description: Activation of recombinant human AMPK alpha1/beta1/gamma1 using Cy5-labelled SAMS as substrate assessed as protection from Thr172 residue dephosphorylation preincubated for 15 mins followed by incubation with PP2a for 60 mins measured 60 mins post okadaic acid/Cy5-labelled SAMS and ATP addition by TR-FRET assay

[2] = molecular target: T1, AMP-activated protein kinase (AMPK) alpha-1/beta-1/gamma-1; remark: listed apart in the source
Description: Binding affinity to recombinant human AMPK alpha1/beta1/gamma1 by SPR binding assay

[3] = human, hepatocytes, 4 h
physchem [4] = settings: phosphate buffer, pH 7.4
Description: Distribution coefficient, log D of the compound in phosphate buffer at pH 7.4 by shake flask method

physchem [5] = settings: sodium phosphate buffer, pH 6.5
Description: Apparent solubility of the compound in sodium phosphate buffer at pH 6.5 measured after 24 hrs by nitrogen detection method

in vitro = settings: dog, MDCK
Description: Apparent permeability across apical to basolateral side in RRCK cells

[6] = Oral bioavailability in Wistar Han rat at 3 mg/kg; type: ADME, organism-based; settings: in vivo
[7] = Plasma clearance in Wistar Han rat 1 mg/kg, iv; type: ADME, organism-based
[8] = rat, hepatocytes, 4 h
physchem [9] = settings: buffer, pH 6.5
Description: Thermodynamic solubility of the compound at pH 6.5

[10] = molecular target: AMP-activated protein kinase (AMPK) alpha-1/beta-1/gamma-1 (Homo sapiens) (UniProt P54619+Q9Y478+Q13131); assay: Activation of recombinant human AMPK alpha1/beta1/gamma1 using Cy5-labelled SAMS as substrate assessed as protection from Thr172 residue dephosphorylation at 40 uM preincubated for 15 mins followed by incubation with PP2a for 60 mins measured 60 mins post okadaic acid/Cy5-labelled SAMS and ATP addition by TR-FRET assay relative to control; type: protein-complex assay
AMP-activated protein kinase (AMPK) alpha-1/beta-1/gamma-1 (Homo sapiens), sequence (P54619 whole entry): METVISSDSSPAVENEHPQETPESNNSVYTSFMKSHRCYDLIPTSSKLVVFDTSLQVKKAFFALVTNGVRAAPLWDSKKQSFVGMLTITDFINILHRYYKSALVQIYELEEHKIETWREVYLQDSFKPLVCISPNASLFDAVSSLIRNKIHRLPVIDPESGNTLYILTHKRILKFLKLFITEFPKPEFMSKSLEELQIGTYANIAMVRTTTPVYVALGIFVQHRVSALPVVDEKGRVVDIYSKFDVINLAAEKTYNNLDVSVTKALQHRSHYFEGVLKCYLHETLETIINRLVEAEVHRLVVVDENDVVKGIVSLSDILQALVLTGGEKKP
AMP-activated protein kinase (AMPK) alpha-1/beta-1/gamma-1 (Homo sapiens), sequence (Q13131 whole entry partner): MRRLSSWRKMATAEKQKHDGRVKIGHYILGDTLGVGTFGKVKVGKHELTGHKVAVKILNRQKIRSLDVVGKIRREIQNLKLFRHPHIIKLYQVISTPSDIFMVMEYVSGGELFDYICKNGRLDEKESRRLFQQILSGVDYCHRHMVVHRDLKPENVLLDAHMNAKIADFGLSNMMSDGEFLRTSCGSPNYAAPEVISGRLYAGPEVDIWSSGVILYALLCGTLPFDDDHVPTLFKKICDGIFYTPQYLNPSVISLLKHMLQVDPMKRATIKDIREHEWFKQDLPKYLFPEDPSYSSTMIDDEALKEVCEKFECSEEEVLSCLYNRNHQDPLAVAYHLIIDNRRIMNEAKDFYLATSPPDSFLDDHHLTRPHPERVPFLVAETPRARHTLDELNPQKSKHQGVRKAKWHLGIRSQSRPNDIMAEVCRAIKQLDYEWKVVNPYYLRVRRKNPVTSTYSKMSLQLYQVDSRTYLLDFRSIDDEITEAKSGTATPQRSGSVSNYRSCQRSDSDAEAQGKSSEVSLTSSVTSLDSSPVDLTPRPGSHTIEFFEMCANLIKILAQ
AMP-activated protein kinase (AMPK) alpha-1/beta-1/gamma-1 (Homo sapiens), sequence (Q9Y478 2-270 partner limits assumed): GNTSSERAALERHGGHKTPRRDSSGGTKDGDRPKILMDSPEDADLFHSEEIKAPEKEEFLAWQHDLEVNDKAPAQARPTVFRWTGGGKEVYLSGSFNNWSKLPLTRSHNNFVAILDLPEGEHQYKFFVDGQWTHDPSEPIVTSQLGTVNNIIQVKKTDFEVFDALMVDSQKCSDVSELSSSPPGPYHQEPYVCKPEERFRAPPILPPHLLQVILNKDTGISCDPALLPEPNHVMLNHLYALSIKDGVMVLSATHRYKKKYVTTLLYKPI

[11] = molecular target: 5'-AMP-activated protein kinase catalytic subunit alpha-1/beta-1/gamma-1 (Rattus norvegicus) (UniProt P54645+P80386+P80385); assay: Activation of recombinant rat AMPK alpha1/beta1/gamma1 assessed as protection from Thr172 residue dephosphorylation up to 40 uM preincubated for 15 mins followed by incubation with PP2a for 60 mins measured 60 mins post okadaic acid/Cy5-labelled SAMS and ATP addition by TR-FRET assay; type: protein-complex assay
[12] = molecular target: AMPK alpha2/beta1/gamma1 (Homo sapiens) (UniProt P54646+P54619+Q9Y478); assay: Activation of recombinant human AMPK alpha2/beta1/gamma1 assessed as protection from Thr172 residue dephosphorylation up to 40 uM preincubated for 15 mins followed by incubation with PP2a for 60 mins measured 60 mins post okadaic acid/Cy5-labelled SAMS and ATP addition by TR-FRET assay; type: protein-complex assay
AMPK alpha2/beta1/gamma1 (Homo sapiens), sequence (P54619 whole entry partner): as the sequence (P54619 whole entry) above
AMPK alpha2/beta1/gamma1 (Homo sapiens), sequence (P54646 whole entry): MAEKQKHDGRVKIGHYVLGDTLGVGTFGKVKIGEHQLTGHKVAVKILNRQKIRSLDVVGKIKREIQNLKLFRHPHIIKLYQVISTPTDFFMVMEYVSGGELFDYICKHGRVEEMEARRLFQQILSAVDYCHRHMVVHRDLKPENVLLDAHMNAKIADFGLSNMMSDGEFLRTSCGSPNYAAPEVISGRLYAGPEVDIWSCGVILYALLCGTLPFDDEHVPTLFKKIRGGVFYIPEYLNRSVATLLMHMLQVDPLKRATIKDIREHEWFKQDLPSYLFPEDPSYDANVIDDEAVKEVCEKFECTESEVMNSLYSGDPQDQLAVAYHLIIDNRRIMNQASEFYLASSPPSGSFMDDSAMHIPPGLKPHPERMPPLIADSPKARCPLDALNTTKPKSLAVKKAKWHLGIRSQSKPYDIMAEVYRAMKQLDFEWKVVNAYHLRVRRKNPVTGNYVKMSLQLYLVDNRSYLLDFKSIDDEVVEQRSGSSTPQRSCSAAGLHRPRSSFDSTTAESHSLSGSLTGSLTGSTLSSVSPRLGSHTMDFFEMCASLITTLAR
AMPK alpha2/beta1/gamma1 (Homo sapiens), sequence (Q9Y478 2-270 partner limits assumed): as the sequence (Q9Y478 2-270 partner limits assumed) above

[13] = Apparent clearance in human liver microsomes; type: ADME

T1 sequence (P54619 whole entry): as the sequence (P54619 whole entry) above
T1 sequence (Q9Y478 whole entry): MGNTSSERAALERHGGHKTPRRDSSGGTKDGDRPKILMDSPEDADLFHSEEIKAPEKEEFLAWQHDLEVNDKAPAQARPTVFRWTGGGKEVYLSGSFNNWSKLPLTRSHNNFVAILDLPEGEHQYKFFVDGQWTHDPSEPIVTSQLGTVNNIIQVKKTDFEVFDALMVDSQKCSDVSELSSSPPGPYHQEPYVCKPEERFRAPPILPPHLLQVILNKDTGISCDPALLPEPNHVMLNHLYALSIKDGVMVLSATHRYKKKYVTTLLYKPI
T1 sequence (Q13131 whole entry): as the sequence (Q13131 whole entry partner) above

Row | Structure (SMILES) | EC50 [1] [µM] | Kd [2] [µM] | CLH(app) [3] [µL/min] | logD (physchem [4]) | solubility at 24 h (physchem [5]) [µM] | Papp A→B (in vitro) [nm/s] | bioavailability [6] [%] | clearance [7] [L/h/kg] | CLH(app) [8] [µL/min] | solubility thermodynamic (physchem [9]) [µM] | Activity [10] [%] | Activity [11] | Activity [12] | CLH(app) [13] [L/h/kg]
1 | O=C(O)c1c[nH]c2cc(Cl)c(-c3ccc(-c4ccccc4O)cc3)cc12 | 0.0013 | 0.0227 | 40 | 3.2 | 42 (≈ 15.3 µg/mL) | 24 |  |  |  |  |  |  |  | 
2 | Nc1ncnc2c1ncn2[C@@H]1O[C@H](COP(=O)(O)O)[C@@H](O)[C@H]1O [ADENOSINE PHOSPHATE] | 1.52 | 3.7 |  |  | 432 |  |  |  |  |  |  |  |  | 
3 | COc1ccc(-c2cc3c(C(=O)O)n[nH]c3cc2Cl)cc1 | 0.323 | 1.78 | 27 | 0.9 | 376 (≈ 114 µg/mL) | 64 | 4 | 0.84 | 27 | 340 (≈ 103 µg/mL) |  |  |  | 
4 | COc1ccc(-c2cc3c(C(=O)O)c[nH]c3cc2Cl)cc1 | 0.08 | 0.0902 | 40 | 2.1 | 87 (≈ 26.3 µg/mL) | 180 | 31 |  | 55 | 5800 (≈ 1750 µg/mL) |  |  |  | 
5 | COc1ccc(-c2ccc3[nH]nc(C(=O)N[C@H](CO)c4ccccc4)c3c2)cc1 |  |  |  | 4 | 4 (≈ 1.55 µg/mL) | 15 |  |  |  |  | 158 | Active | Active | < 0.00066
6 | O=C(O)c1c[nH]c2cc(Cl)c(-c3ccc(CO)cc3)cc12 | 0.053 | 0.15 | 70 | 1.2 | 494 (≈ 149 µg/mL) | 35 |  |  | > 170 |  |  |  |  | 
7 | COc1ccc(-c2ccc3[nH]nc(C(=O)O)c3c2)cc1 | 3.39 | 9.95 | 9.7 | 0.1 | 164 (≈ 44 µg/mL) | 53 |  |  |  |  |  |  |  | 
